Values joined by “and” are separate entries in the source; they are usually repeats but may differ in a detail not shown here. Equal values may be shown once.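 Interpolation was linear, between the two tested concentrations surrounding the appropriate level; five concentrations were tested over 48 hours in 96-well plates. The concentration for full growth arrest is given as TGI.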

Test systems include XF 498 CNS; DMS 114 small cell lung; M19-MEL melanoma; DLD-1 colon; RXF-631 renal; KM20L2 colon; HOP-18 NSCLC; DMS 273 small cell lung.
Common to all, as to assay: inhibition of tumour cell growth, NCI panel, 48 h

As to `CN1CCCCC(C(O)(c2ccccc2)c2ccccc2)C1=O` (stereo not drawn), the TGI in the experiment with XF 498 CNS, in the experiment with DMS 114 small cell lung, in the experiment with M19-MEL melanoma, in the experiment with DLD-1 colon, with RXF-631 renal and in the experiment with KM20L2 colon was more than 100 µM each time. The TGI in the experiment with HOP-18 NSCLC and in the experiment on DMS 273 small cell lung was more than 100 µM each time.
Regarding `COc1ccc(C2=CN3CCC[C@H]3C=C2c2cc(O)c(OC)c(OC)c2)cc1OC`, the TGI with DMS 114 small cell lung was 0.0189 µM; in the experiment with M19-MEL melanoma, 0.011 µM; in the experiment on DLD-1 colon it was 0.0627 µM and 0.0119 µM; with HOP-18 NSCLC, 0.0504 µM; with DMS 273 small cell lung, 0.0216 µM.
Consider `COC(=O)n1c(CBr)c(Br)c2ccccc21`, for which the TGI in the experiment on DMS 114 small cell lung, with M19-MEL melanoma, in the experiment with DLD-1 colon, in the experiment on KM20L2 colon and with DMS 273 small cell lung was more than 100 µM in each case.
For `COC(=O)c1cccc(C(=O)OC)c1`, the TGI with XF 498 CNS, in the experiment with DLD-1 colon, in the experiment with HOP-18 NSCLC and with DMS 273 small cell lung was more than 100 µM in each case.
With `Nc1nc(SCCC/C=C/I)nc2c1ncn2C1OC(CO)C(O)C1O` (stereo not drawn), the TGI in the experiment with XF 498 CNS, with DMS 114 small cell lung, in the experiment on M19-MEL melanoma, in the experiment with DLD-1 colon, in the experiment with KM20L2 colon and in the experiment with HOP-18 NSCLC was more than 202 µM in each case. In the experiment with DMS 273 small cell lung, this compound yielded a TGI of more than 202 µM.
Turning to `CC(=O)Nc1ccc(-c2nnc(SCC(=O)Nc3ccccc3C)o2)cc1`, the TGI with DMS 114 small cell lung, in the experiment with M19-MEL melanoma, in the experiment with DLD-1 colon, in the experiment with KM20L2 colon, in the experiment on HOP-18 NSCLC and in the experiment with DMS 273 small cell lung was more than 100 µM throughout.
For `Clc1ncnc2c1ncn2CCCCCCCCCCCCn1cnc2c(Cl)ncnc21`, the TGI with XF 498 CNS was 21.6 µM; with DMS 114 small cell lung it was 3.55 µM; in the experiment on M19-MEL melanoma, 5.7 µM; with DLD-1 colon it was 20.4 µM; with KM20L2 colon, 30 µM; with HOP-18 NSCLC, 58.3 µM. For the same compound, in the experiment on DMS 273 small cell lung, the TGI came out at 14.1 µM.
In the case of `CC(=O)NC1=C(NCc2ccc(Cl)cc2)C(=O)c2ccccc2C1=O`, the TGI with XF 498 CNS was 4.74 µM; with M19-MEL melanoma, 11.2 µM; in the experiment with DLD-1 colon it was 13.2 µM; in the experiment with KM20L2 colon, more than 50 µM; in the experiment with DMS 273 small cell lung, 14.6 µM.
As to `COc1nc2[nH]ccc2c(=O)n1C`, the TGI in the experiment on XF 498 CNS, with DMS 114 small cell lung, in the experiment on DLD-1 colon, in the experiment on RXF-631 renal, in the experiment on HOP-18 NSCLC and in the experiment with DMS 273 small cell lung was more than 100 µM throughout.

Values taken from PubChem BioAssay (NCI).
